The source of these data is patent publication US20060037100A1, “Fungal resistant transgenic pepper plants and their production method” (priority 2004, published 2006).

The experiment has as its system pepper cells. The experiment is described as follows: Hygromycin sensitivity of pepper cells (growth of hypocotyl explants on SIM medium). The format is cell-based, Capsicum annuum L. (pepper). On the procedure: The sensitivity of untransformed wild type (WT) and transformed (T) hypocotyl explants to hygromycin B was examined by using shoot induction medium containing 0, 5, 10, 20, 50 mg/l of hygromycin B (A). Fresh weight (mg) of hypocotyl explants growing on the medium containing hygromycin B (B).
Selection of transgenic cells was preformed in medium containing 20 mg/l hygromycin B in all experiments.

For `CN[C@H]1C[C@@H](N)[C@H](O)[C@@H](O[C@@H]2O[C@H](CO)[C@H](O)[C@@H]3OC4(O[C@H]23)O[C@H]([C@@H](N)CO)[C@H](O)[C@H](O)[C@H]4O)[C@@H]1O` (some centres unmarked) [hygromycin B], the “effect on the growth of pepper cells” value (hygromycin B 5 mg/l in SIM medium, after 14 days of culture) is reported as “severe inhibitory effect”. Further, the “hygromycin B concentration up to which transgenic cells showed resistance” value (transgenic (transformed) pepper cells on SIM medium) is “up to 50 mg/l”.
